Experimental data as given in patent US20210322582A1, “RADIOACTIVE IMIDAZOTHIADIAZOLE DERIVATIVE COMPOUND” (Nihon Medi-Physics Co., Ltd., priority 2018, published 2021).
Where “and” joins values, the source holds several entries; their conditions need not be identical. Equal values may be shown once.

Tests used:
[1] = tested on: HT-29 tumor and MDA-MB-231 tumor; assay: CA-IX selectivity of [^111In]ITDA1 in cancer-bearing mouse (HT-29 vs MDA-MB-231); format: in vivo; details: 24 hours from administration
Protocol: HT-29 cells (5×10^6 cells/mouse) and MDA-MB-231 cells (5×10^6 cells/mouse) were subcutaneously inoculated into the left shoulders of 5-week old male BALB/c nude mice, respectively. A saline solution (100 μL) in which [^111In]ITDA1 (37 kBq) had been dissolved was administered to each of the cancer-bearing mice (n=5) via the tail vein. The mice were slaughtered after the lapse of 24 hours from the administration, and the blood, transplanted tumor, and muscle were recovered from each of the mice. The weight of each organ was measured, and the amount of radioactivity in each organ was measured by using a gamma counter. The accumulation of radioactivity in each organ was expressed by % ID (injected dose)/g obtained by dividing the ratio of the amount of radioactivity of each organ to the administered amount of radioactivity by the organ weight.

HT-29-transplanted tumor = assay: Biodistribution of [^111In]ITDA1 in HT-29 cancer-bearing mouse; format: in vivo; details: for Accumulation of radioactivity: Blood / Accumulation of radioactivity: Brain / Accumulation of radioactivity: Heart / Accumulation of radioactivity: Intestines / Accumulation of radioactivity: Kidney / Accumulation of radioactivity: Liver / Accumulation of radioactivity: Lungs / Accumulation of radioactivity: Muscle / Accumulation of radioactivity: Pancreas / Accumulation of radioactivity: Spleen / Accumulation of radioactivity: Stomach / Accumulation of radioactivity: Tumor (HT-29) / Tumor/blood / Tumor/muscle: HT-29 mouse
Protocol: HT-29 cells (5×10^6 cells/mouse) were subcutaneously inoculated into the left shoulder of each of 5-week old male BALB/c nude mice (purchased from Shimizu Laboratory Supplies Co., Ltd., the same applies to the following Examples). A saline solution (100 μL) in which [^111In]ITDA1 (37 kBq) had been dissolved was administered to each of the HT-29 cancer-bearing mice (n=5) via the tail vein. The mice were slaughtered after the lapse of 1, 4, 8, and 24 hours from the administration, and the blood, spleen, pancreas, stomach, intestines, kidney, liver, heart, lungs, brain, HT-29-transplanted tumor, and muscle were recovered. The weight of each organ was measured, and the amount of radioactivity in each organ was measured by using a gamma counter. The accumulation of radioactivity in each organ was expressed by % ID (injected dose)/g obtained by dividing the ratio of the amount of radioactivity of each organ to the administered amount of radioactivity by the organ weight.

NS(=O)(=O)c1nn2cc(-c3ccc(NC(=O)CN4CCN(CC(=O)O)CCN(CC(=O)O)CCN(CC(=O)O)CC4)cc3)nc2s1.[111In+3] [[^111In]ITDA1, [^111In]indium(III)2,2′,2″-(10-(2-oxo-2-((4-(2-sulfamoylimidazo[2,1-b][1,3,4]thiadiazol-6-yl)phenyl)amino)ethyl)-1,4,7,10-tetraazacyclododecan-1,4,7-triyl) triacetic acid]
CA-IX selective tumor accumulation [1]: confirmed
Transplanted tumor/blood ratio, HT-29 vs MDA-MB-231 [1]: significant difference was similarly observed
Transplanted tumor/muscle ratio, HT-29 vs MDA-MB-231 [1]: significant difference was similarly observed
Amount accumulated in the HT-29 tumor vs the MDA-MB-231 tumor ([1]; Welch's t-test, 1% significance level): significant difference was observed
Accumulation of radioactivity: Blood (HT-29-transplanted tumor; 1 h after administration): 0.27 ± 0.03 % ID/tissue weight (g)
Accumulation of radioactivity: Brain (HT-29-transplanted tumor; 1 h after administration): 0.30 ± 0.02 % ID/tissue weight (g)
Accumulation of radioactivity: Heart (HT-29-transplanted tumor; 1 h after administration): 7.58 ± 1.20 % ID/tissue weight (g)
Accumulation of radioactivity: Intestines (HT-29-transplanted tumor; 1 h after administration): 10.86 ± 1.27 % ID/tissue weight (g)
Accumulation of radioactivity: Kidney (HT-29-transplanted tumor; 1 h after administration): 111.20 ± 12.39 % ID/tissue weight (g)
Accumulation of radioactivity: Liver (HT-29-transplanted tumor; 1 h after administration): 3.59 ± 0.98 % ID/tissue weight (g)
Accumulation of radioactivity: Lungs (HT-29-transplanted tumor; 1 h after administration): 13.49 ± 5.52 % ID/tissue weight (g)
Accumulation of radioactivity: Muscle (HT-29-transplanted tumor; 1 h after administration): 5.44 ± 1.59 % ID/tissue weight (g)
Accumulation of radioactivity: Pancreas (HT-29-transplanted tumor; 1 h after administration): 31.32 ± 5.29 % ID/tissue weight (g)
Accumulation of radioactivity: Spleen (HT-29-transplanted tumor; 1 h after administration): 0.33 ± 0.10 % ID/tissue weight (g)
Accumulation of radioactivity: Stomach (HT-29-transplanted tumor; 1 h after administration): 2.59 ± 0.69 % ID
Accumulation of radioactivity: Tumor (HT-29) (HT-29-transplanted tumor; 1 h after administration): 3.81 ± 0.79 % ID/tissue weight (g)
Tumor/blood (HT-29-transplanted tumor; 1 h after administration): 14.41 ± 3.35
Tumor/muscle (HT-29-transplanted tumor; 1 h after administration): 0.74 ± 0.25
Accumulation of radioactivity: Blood (HT-29-transplanted tumor; 4 h after administration): 0.25 ± 0.18 % ID/tissue weight (g)
Accumulation of radioactivity: Brain (HT-29-transplanted tumor; 4 h after administration): 0.35 ± 0.05 % ID/tissue weight (g)
Accumulation of radioactivity: Heart (HT-29-transplanted tumor; 4 h after administration): 3.49 ± 0.74 % ID/tissue weight (g)
Accumulation of radioactivity: Intestines (HT-29-transplanted tumor; 4 h after administration): 14.20 ± 1.28 % ID/tissue weight (g)
Accumulation of radioactivity: Kidney (HT-29-transplanted tumor; 4 h after administration): 115.12 ± 8.70 % ID/tissue weight (g)
Accumulation of radioactivity: Liver (HT-29-transplanted tumor; 4 h after administration): 3.86 ± 0.92 % ID/tissue weight (g)
Accumulation of radioactivity: Lungs (HT-29-transplanted tumor; 4 h after administration): 5.09 ± 1.69 % ID/tissue weight (g)
Accumulation of radioactivity: Muscle (HT-29-transplanted tumor; 4 h after administration): 2.69 ± 0.76 % ID/tissue weight (g)
Accumulation of radioactivity: Pancreas (HT-29-transplanted tumor; 4 h after administration): 18.81 ± 2.04 % ID/tissue weight (g)
Accumulation of radioactivity: Spleen (HT-29-transplanted tumor; 4 h after administration): 0.31 ± 0.12 % ID/tissue weight (g)
Accumulation of radioactivity: Stomach (HT-29-transplanted tumor; 4 h after administration): 5.22 ± 0.79 % ID
Accumulation of radioactivity: Tumor (HT-29) (HT-29-transplanted tumor; 4 h after administration): 4.20 ± 0.68 % ID/tissue weight (g)
Tumor/blood (HT-29-transplanted tumor; 4 h after administration): 21.70 ± 8.65
Tumor/muscle (HT-29-transplanted tumor; 4 h after administration): 1.62 ± 0.33
Accumulation of radioactivity: Blood (HT-29-transplanted tumor; 8 h after administration): 0.18 ± 0.02 % ID/tissue weight (g)
Accumulation of radioactivity: Brain (HT-29-transplanted tumor; 8 h after administration): 0.41 ± 0.05 % ID/tissue weight (g)
Accumulation of radioactivity: Heart (HT-29-transplanted tumor; 8 h after administration): 2.16 ± 0.31 % ID/tissue weight (g)
Accumulation of radioactivity: Intestines (HT-29-transplanted tumor; 8 h after administration): 14.99 ± 1.27 % ID/tissue weight (g)
Accumulation of radioactivity: Kidney (HT-29-transplanted tumor; 8 h after administration): 83.81 ± 7.88 % ID/tissue weight (g)
Accumulation of radioactivity: Liver (HT-29-transplanted tumor; 8 h after administration): 3.15 ± 0.78 % ID/tissue weight (g)
Accumulation of radioactivity: Lungs (HT-29-transplanted tumor; 8 h after administration): 3.54 ± 1.19 % ID/tissue weight (g)
Accumulation of radioactivity: Muscle (HT-29-transplanted tumor; 8 h after administration): 1.75 ± 0.37 % ID/tissue weight (g)
Accumulation of radioactivity: Pancreas (HT-29-transplanted tumor; 8 h after administration): 9.80 ± 2.34 % ID/tissue weight (g)
Accumulation of radioactivity: Spleen (HT-29-transplanted tumor; 8 h after administration): 0.21 ± 0.05 % ID/tissue weight (g)
Accumulation of radioactivity: Stomach (HT-29-transplanted tumor; 8 h after administration): 6.09 ± 0.82 % ID
Accumulation of radioactivity: Tumor (HT-29) (HT-29-transplanted tumor; 8 h after administration): 5.16 ± 0.62 % ID/tissue weight (g)
Tumor/blood (HT-29-transplanted tumor; 8 h after administration): 29.14 ± 5.15
Tumor/muscle (HT-29-transplanted tumor; 8 h after administration): 3.03 ± 0.66
Accumulation of radioactivity: Blood (HT-29-transplanted tumor; 24 h after administration): 0.16 ± 0.02 % ID/tissue weight (g)
Accumulation of radioactivity: Brain (HT-29-transplanted tumor; 24 h after administration): 0.48 ± 0.03 % ID/tissue weight (g)
Accumulation of radioactivity: Heart (HT-29-transplanted tumor; 24 h after administration): 1.56 ± 0.30 % ID/tissue weight (g)
Accumulation of radioactivity: Intestines (HT-29-transplanted tumor; 24 h after administration): 17.99 ± 1.59 % ID/tissue weight (g)
Accumulation of radioactivity: Kidney (HT-29-transplanted tumor; 24 h after administration): 65.13 ± 7.13 % ID/tissue weight (g)
Accumulation of radioactivity: Liver (HT-29-transplanted tumor; 24 h after administration): 2.21 ± 0.34 % ID/tissue weight (g)
Accumulation of radioactivity: Lungs (HT-29-transplanted tumor; 24 h after administration): 2.06 ± 0.66 % ID/tissue weight (g)
Accumulation of radioactivity: Muscle (HT-29-transplanted tumor; 24 h after administration): 1.43 ± 0.53 % ID/tissue weight (g)
Accumulation of radioactivity: Pancreas (HT-29-transplanted tumor; 24 h after administration): 8.13 ± 0.91 % ID/tissue weight (g)
Accumulation of radioactivity: Spleen (HT-29-transplanted tumor; 24 h after administration): 0.42 ± 0.18 % ID/tissue weight (g)
Accumulation of radioactivity: Stomach (HT-29-transplanted tumor; 24 h after administration): 8.74 ± 0.46 % ID
Accumulation of radioactivity: Tumor (HT-29) (HT-29-transplanted tumor; 24 h after administration): 8.71 ± 1.41 % ID/tissue weight (g)
Tumor/blood (HT-29-transplanted tumor; 24 h after administration): 53.56 and 53.56 ± 5.53
Tumor/muscle (HT-29-transplanted tumor; 24 h after administration): 6.59 and 6.59 ± 2.18
Accumulation in the HT-29-transplanted tumor (HT-29-transplanted tumor; one hour after administration): 3.81 % ID/g
